Measured values reported in US12485127B2, “Compositions and methods for treatment and prevention of actinic keratosis using copper chlorin” (CHL Industries, LLC, priority 2024, dated 2025).
Like-named read-outs stand apart in the source and are kept apart here.

Legend:
[1] = test system: HPV-18 (strain: KC470230.1); assay: HPV-18 genome plasmid replication assay in C-33 A cells; format: cell-based, human papillomavirus; details: for EC50 / EC90: host cell line C-33A
Method: (§1) The in vitro testing of the chlorin compounds and the positive control for antiviral cytopathic effect (CPE) was conducted through The National Institute of Allergy and Infectious Diseases (NIAID) NCEA Program. The in vitro testing was done by the method described by Beadle J R, Valiaeva N, Yang G, Yu J H, Broker T R, Aldern K A, et al. Synthesis and Antiviral Evaluation of Octadecyloxyethyl Benzyl 9-[(2-Phosphonomethoxy)ethyl]guanine (ODE-Bn-PMEG), a Potent Inhibitor of Transient HPV DNA Amplification. J Med Chem. 2016; 59(23):10470-8. PubMed PMID: 27933957. This method uses an HPV-11 replicon assay. The replicon (pMP619) is transfected into C-33 A cells grown as monolayers in 384-well plates. At 48 hours post transfection, the enzymatic activity of the destabilized NanoLuc reporter is assessed with NanoGlo reagent. […] The host C-33 A cells are epithelial cells originally isolated from the cervix of a uterine cancer patient. For reasons previously mentioned in this application, in vitro testing of compounds for potential antiviral activity against HPV strains cannot use human keratinocytes as the host cells due to the variable HPV replication activity with this cell line.
(§2) The EC50 (or Effective Concentration 50) is the concentration of the test compound in micromoles that reduces virus replication by 50%. The EC90 (or Effective Concentration 90) is the concentration of the test compound in micromoles that reduces virus replication by 90%. CC50 (or Cytotoxic Concentration 50) is the concentration of the test compound in micromoles that reduces the cell viability of the virus host cell by 50%. The SI50 (or Selectivity Index 50) is a measure of both safety and efficacy or therapeutic index and is calculated by dividing the CC50 by the EC50. The SI90 (Selectivity Index 90) is calculated by dividing the CC50 by the EC90.
(§3) The in vitro test method used to assess activity of copper chlorins according to embodiments herein against HPV-18 and HPV-31 used the same replication and quantification method described previously for Table 1 results but with HPV-18 and HPV-31 genome plasmids. Results of the in vitro testing of three of the same copper chlorins as used in Table 1, as well as the same control, against HPV 18 and HPV 31 are summarized in Table 2 and Table 3 below.

[2] = Cytotoxicity to virus host cell (CC50); format: cell-based, human; details: human, C-33A host cells
[3] = test system: HPV-11 (HE611260.1 strain); assay: HPV-11 replicon assay (NanoLuc reporter) in C-33 A cells; format: cell-based, human papillomavirus; details: for EC90 / EC50: host cell line C-33A; for EC50: 48 hours post transfection
Method: as §1
The control compound, PMEG, has a molecular weight of 289.188 g/mol. The molecular weight of the copper chlorin compounds evaluated are (1) 661.5 g/mol for disodium copper isochlorin e4; (2) 710.5 g/mol for trisodium copper chlorin p6; (3) 724.15 g/mol for trisodium copper chlorin e6; and (4) 740 g/mol for trisodium copper rhodin g7. The antiviral test results in Table 1 for each treatment composition and the control are reported in micromoles (uM) for the EC50, EC90, and CC50. The SI 50 and SI 90 are calculated from the EC50, EC90, and CC50 data.
as §2

[4] = test system: HPV-31 (strain: HQ53768.1); assay: HPV-31 genome plasmid replication assay in C-33 A cells; format: cell-based, human papillomavirus; details: for EC50 / EC90: host cell line C-33A
Method: as §1, §2, §3

[5] = test system: HPV-11 (HE611260.1 strain); details: HPV-11 replicon assay; reference range; read-out: EC50 value range of the reference compound for this assay; cited from earlier work
[6] = test system: Human neonatal epidermal keratinocytes (HEKn); assay: Transcriptome study (Clariom S) of gene regulation in keratinocytes; format: cell-based; details: 20 ug/mL; 24-hour exposure; versus water control
Method: The transcriptome study of copper chlorins was conducted by Sunny Biodiscovery laboratory and Thermo-Fisher Scientific Microarray Research Services Laboratory, both of Santa Clara, California to determine gene regulatory activity and biomarkers associated with activity of the copper chlorins on human skin by assessing gene expression from keratinocyte culture after 24-hour exposure of each of the copper chlorins as previously detailed in U.S. Provisional Application Ser. No. 63/233,229 (filed on Aug. 14, 2021).
Human neonatal epidermal keratinocytes (HEKn) were obtained from Cell Applications 5 (San Diego, CA) and were plated in a 96 well plate (Bioland Scientific, Paramount, CA, item #701003 made of high clarity polystyrene) with keratinocyte growth media (Human EpiVita Serum-Free Growth Medium for Neonatal Cells; Cell Applications, San Diego, CA). Cells were mixed with growth media at a rate of 10,000 cells per 200 μl (approximately 10^4 cells per well) and added to the 96 wells (0.2 mL/well) and incubated overnight at 37° C.
Following the overnight incubation of keratinocytes, each of the 4 copper chlorins evaluated was separately dissolved in sterile distilled water at a concentration of 20 mg/mL. Dissolution occurs at 20-25° C. with slight agitation for 1-2 minutes until no solid particles were visible. This stock solution of 20 mg/mL was then further diluted with sterile water to a concentration of 500 μg/mL. The 500 μg/mL solution of each test copper chlorin was added to the cells in the growth media at a ratio of 1:20 (test solution: cells & media) and incubated in the wells for 24 hours at 37° C.
The following day the test solution and growth media were removed from the wells and the cells were rinsed with phosphate-buffered saline (PBS). The RNA from the cells treated with each of the test compounds was extracted and purified with a RNeasy Mini Plus Kit (Catalogue #74134; Qiagen, Germantown, MD) with automated lysing and homogenization using a Qiacube Connect robotic station (Qiagen, Germantown, MD). The protocol for RNA extraction is selected on the Qiacube Connect automated station and cell samples, labware, and reagents are loaded as instructed. Cells are first lysed and homogenized in highly denaturing guanidine-isothiocyanate-containing Buffer RLT Plus, which immediately inactivates RNases to ensure isolation of intact RNA. The lysate is passed through Qiacube Connect loaded gDNA Eliminator spin columns, 15 ethanol is added to the flow-through, and the samples are then applied to Qiacube preloaded RNeasy MinElute spin columns. RNA binds to the membrane and contaminants are washed away. High quality RNA is eluted and collected in a total of 30 μL sterile distilled water.
The stepwise procedure for production of RNA using RNeasy Plus procedure is outlined FIG. 4. Once collected, the purity of the RNA is assessed with the NanoDrop Lite spectrophotometer (Thermo Fisher Scientific, Waltham, MA) at 260 nm and 280 nm. The NanoDrop Lite unit is a small, stand-alone UV spectrophotometer that is designed 5 to measure microvolumes (1-2 μL) of nucleic acid and protein samples. Purity of the collected RNA was verified by adding 1 μL of the collected RNA to the NanoDrop Lite unit, selecting the RNA application on the NanoDrop Lite Home screen and following the stepwise measuring procedure as detailed in the NanoDrop Lite Manual.
The extracted RNA for each of the four treatment compositions evaluated from the above procedure was then transported on dry ice to a laboratory specializing in transcriptome analysis (Thermo Fisher Scientific Microarray Research Services Laboratory, Santa Clara, CA). The transcriptome profiling of the RNA samples was conducted using the Clariom S GeneChip® Pico Assay platform. […]

[7] = test system: C-33 A cells; assay: Cytotoxicity to virus host cell (CC50); format: cell-based, human
[8] = test system: actinic keratosis; details: cited from earlier work

Compound: Nc1nc2c(ncn2CCOCP(=O)(O)O)c(=O)[nH]1 [9-[2-(phosphono-methoxy)-ethyl]guanine, reference compound]
- EC50 ([1]; Human papillomavirus): 2.33 µM
- EC90 ([1]; Human papillomavirus): 21.3 µM
- CC50 ([2]; HPV-11 test (Table 1)): > 150 µM
- CC50 ([2]; HPV-18 test (Table 2)): > 250 µM
- CC50 ([2]; HPV-31 test (Table 3)): > 250 µM
- EC90 ([3]; Human papillomavirus): > 150 µM
- EC50 ([3]; Human papillomavirus): 2.27 µM
- EC50 ([4]; Human papillomavirus): 3.92 µM
- EC90 ([4]; Human papillomavirus): 18.4 µM
- EC50 [5]: 2 to 9.2 µM

Compound: C=Cc1c(C)c2cc3nc(c(CC(=O)[O-])c4[n-]c(cc5nc(cc1[n-]2)C(C)=C5CC)c(C)c4C(=O)[O-])C(CCC(=O)[O-])C3C.[Cu+2].[Na+].[Na+].[Na+] (centres unmarked) [Trisodium copper chlorin e6]
- EC50 [1]: 1.42 µM
- EC90 [1]: 2.97 µM
- EC50 converted from micromoles ([3]; converted with molecular weight 724.15): 1.998 µg/mL
- EC90 [3]: 24.9 µM
- EC50 [3]: 2.76 µM
- antiviral activity classification based on SI50 [4]: moderately active (SI50=10−49, moderately active)
- EC50 [4]: 1.75 µM
- EC90 [4]: 3.8 µM
- CDKN1A cyclin-dependent kinase inhibitor 1A (p21, Cip1) gene regulation (keratinocytes) [6]: +2.22 fold
- CYB561 Cytochrome b561 gene regulation (keratinocytes) [6]: −2.28 fold
- EPGN Epithelial mitogen gene regulation (keratinocytes) [6]: −2.56 fold
- MAPK14 Mitogen-activated protein kinase 14 gene regulation (keratinocytes) [6]: −2.23 fold

Compound: C=Cc1c(C)c2cc3nc(c(C(=O)[O-])c4[n-]c(cc5nc(cc1[n-]2)C(C)=C5CC)c(C)c4C(=O)[O-])C(CCC(=O)[O-])C3C.[Cu+2].[Na+].[Na+].[Na+] (centres unmarked) [Trisodium copper chlorin p6]
- CC50 [7]: 58.4 µM
- EC90 [3]: 23.6 µM
- EC50 [3]: 5.51 µM
- KDM7A lysine (K)-specific demethylase 7A gene regulation (keratinocytes) [6]: +2.38 fold
- UNC5B Unc-5 netrin receptor B gene regulation (keratinocytes) [6]: +3.59 fold

Compound: O=C(O)Cc1ccccc1Nc1c(Cl)cccc1Cl [diclofenac]
- AK recurrence rate ([8]; after 12 months from initial treatments): 85%

Compound: O=C(Cc1ccc(-c2ccc(OCCN3CCOCC3)cc2)cn1)NCc1ccccc1 [turbanibulin]
- sustained complete clearance ([8]; after one year, estimated): ~27%
- Initial complete clearance ([8]; trial 1 vs trial 2): 44-54%

Compound: Disodium copper isochlorin e4
- EC50 [1]: 3.2 µM
- EC90 [1]: 6.09 µM
- EC90 [3]: 20.6 µM
- EC50 [3]: 4.63 µM
- EC50 [4]: 0.25 µM
- EC90 [4]: 4.45 µM
- CDKN1A cyclin-dependent kinase inhibitor 1A (p21, Cip1) gene regulation (keratinocytes) [6]: +2.46 fold
- EPGN Epithelial mitogen gene regulation (keratinocytes) [6]: −3.17 fold
- KDM7A lysine (K)-specific demethylase 7A gene regulation (keratinocytes) [6]: +2.62 fold
- UNC5B Unc-5 netrin receptor B gene regulation (keratinocytes) [6]: +8.06 fold

Compound: Trisodium copper rhodin g7
- antiviral activity classification based on SI50 [1]: highly active (SI50>50 highly active)
- EC50 [1]: 1.19 µM
- EC90 [1]: 2.62 µM
- EC90 [3]: 58.8 µM
- EC50 [3]: 4.48 µM
- EC50 [4]: 0.36 µM
- EC90 [4]: 1.62 µM
